Consider 13 compounds from article PMC6273649, “Synthesis of Novel Quaternary Ammonium Salts and Their in Vitro Antileishmanial Activity and U-937 Cell Cytotoxicity” (Molecules, 2016).

Structures are written as SMILES. Values after ≈ are worked out from the molar mass of the structure shown. Like-named read-outs stand apart in the source and are kept apart here. Bounds are passed on as bounds.

The subject of data set [1] is axenic amastigotes of L. (V) panamensis. The data set can be described thus: organism not typed. Format: cell-based. The settings on record: for degree of leishmanicidal activity, axenic amastigotes: authors' own scale by EC50. The protocol: (§1) Virulent L. (V) panamensis MHOM/CO/87/UA140 strain transfected with green fluorescent protein gene called L. (V) panamensis-pIR-eGFP was maintained by successive passaging in golden hamsters (Mesocricetus auratus). Briefly, amastigotes were aspirated from cutaneous lesions of hamsters experimentally infected with promastigotes of L. (V) panamensis-pIR-eGFP. Samples were cultured in biphasic culture with Novy-MacNeal-Nicholle (NNN) medium as solid phase and PBS plus glucose, pH 6.9 as liquid phase and incubated at 26 °C to obtain promastigotes. Medium was changed every week until 2 months.
The axenic amastigotes were obtained from promastigotes cutured in Schneider’s medium, as described elsewhere. Briefly, promastigotes of L. (V) panamensis-pIR-eGFP at 5 × 10^6 parasites/mL were cultured in Schneider medium (Sigma), pH 5.4 supplemented with 20% FBS and 1% antibiotics and incubation at 26 °C. Every three days, medium was changed and temperature was increased one degree each time until it reached 32 °C at which the transformation of the promastigotes into axenic amastigotes is achieved. After three days of growing as axenic amastigotes, parasites were ready to be used in the antileishmanial testing assay as described below.
The ability of compounds to kill axenic amastigotes of L. (V) panamensis was determined based on the viability of the parasites after exposure to each compound evaluated by the MTT method following the methodology described by others. Axenic amastigotes obtained as described above were harvested, washed, and adjusted at 2 × 10^6 parasites/mL in fresh Schneider’s medium with 20% FBS. Into each well of a 96-well plate 100 µL of parasite suspension (2 × 10^5 axenic amastigotes) were dispensed and then 100 µL of each concentration of the corresponding compound were added. […] Plates were incubated at 32 °C. After 72 h of incubation, the effect of each compound was determined by adding 10 µL/well of MTT and incubating at 32 °C for 3 h. The reaction was stopped as described above and the quantity of formazan produced was measured in a plate reader spectrophotometer (Bio-Rad) set at 570 nm. Axenic amastigotes cultivated in the absence of any compound but maintained under the same conditions were used as controls for growth and viability (negative control) while parasites cultivated in the presence of MA were used as controls for leishmanicidal activity (positive control). Assays were performed at least twice with three replicates per each concentration tested.
In turn, activity of compounds with axenic amastigotes was determined according to the reduction of parasite growth percentages obtained for each experimental condition. The percentage of parasite growth was calculated first using Equation (5): % parasite growth = (O.D. treated ax. amastigotes)/(O.D. of untreated ax. amastigotes) × 100(5) where the O.D. of the untreated axenic amastigotes corresponds to 100% parasite growth. Then, the percentage of parasite growth inhibition was calculated using Equation (6): % parasite growth inhibition = 100 − % parasite growth(6)

Data set [2] has as its system intracellular amastigotes of L. (V) panamensis-pIR-eGFP. The data set can be described thus: organism not typed. Format: cell-based. The conditions noted are these: for EC50: U-937, 72 h, read-out: Intracellular Amastigotes EC50; for degree of leishmanicidal activity, intracellular amastigotes: authors' own scale by EC50. The protocol:
as §1
Intracellular amastigotes were obtained after infection of U-937 cells with promastigotes. Briefly, U-937 cells were dispensed in 24-well plates at a concentration of 300,000 cells/well and were treated with 1 µM of phorbol myristate acetate (PMA) (Sigma) for 48 h at 37 °C. Then, cells were infected with promastigotes in stationary growth phase (day 5) at a ratio of 1:15 cell/parasite and incubated for 3 h at 34 °C in 5% CO2. […] After 24 h of infection, cells were ready to be used in antileishmanial testing assay as described below.
The effect of compounds against intracellular amastigotes of L. (V) panamensis-pIR-eGFP was evaluated by flow cytometry using the methodology described by others. […] Infected and treated cells were maintained at 34 °C and 5% CO2 for 72 h. After 72 h, cells were washed twice with 1 mL of cold PBS and cells were removed from the bottom plate with a trypsin/EDTA ([…]) solution. Recovered cells were centrifuged at 1100 rpm for 10 min at 4 °C, the supernatant was discarded and cells were washed with 1 mL of cold PBS and centrifuged at 1100 rpm for 10 min at 4 °C. Supernatant was discarded and cells were suspended in 500 μL of PBS and analyzed by flow cytometry (FC 500MPL, Cytomics, Brea, CA, USA) using histogram analyses (Figure 2). […] Each concentration of compounds was tested in triplicate in two independent experiments.
The antileishmanial activity in intracellular amastigotes was determined according to the reduction of infected cells and parasite load (viable parasites inside infected cells) obtained for each experimental condition. The percentage of infected cell inhibition and parasite load for each concentration of each compound were calculated first using Equation (3): % infection = (% infected and treated cells ÷ % infected and untreated cells) × 100(3)
And then, the percentage of infection inhibition was calculated using Equation (4): % Inhibition = 100 − % infection(4)

A further data set in a line: in vitro. The protocol: U-937 promonocytes (CRL1593.2™) were obtained from the American Type Culture Collection (ATCC, Manassas, VA, USA), cultured in complete medium containing RPMI 1640 medium (Sigma) supplemented with 10% fetal bovine serum (FBS) (Gibco, Life Technologies, Grand Island, NY, USA) and 1% antibiotics (100 U/mL penicillin and 0.1 mg/mL streptomycin) (Sigma). Cells were maintained in standard conditions at 37 °C, 5% CO2 with change of medium every three days until use.
The cytotoxicity of compounds was assessed based on the viability of U-937 cells and evaluated by the MTT (3-(4,5-dimethylthiazol-2-yl)-2,5-diphenyltetrazolium bromide) method as described by others. Briefly, into each well of a 96-well cell-culture dishes 100,000 cells/100 μL were dispensed in RPMI-1640 supplemented with 10% FBS and 100 μL of the corresponding concentrations of the corresponding product. Six two fold serial dilutions were tested starting at 200 µg/mL (200, 100, 50, 25, 12.5 and 6.25 μg/mL). Cells were incubated at 37 °C with 5% CO2 for 72 h in the presence of compounds, and then the effect was determined by measuring the activity of the mitochondrial dehydrogenase by adding 10 µL/well of MTT solution (0.5 mg/mL) and incubating at 37 °C for 3 h. The reaction was stopped by adding 100 μL /well of 50% isopropanol solution with 10% sodium dodecyl sulfate for 30 min. Cell growth was determined based on the quantity of formazan produced, which was measured at 570 nm in a plate reader spectrophotometer (Bio-Rad, Hercules, CA, USA). Cells cultured in the absence of products were used as cell growth controls (negative control), while cells cultured in presence of amphotericin B (AmB, Sigma) and meglumine antimoniate (MA, Sanofi-Aventis, Bogotá, Colombia) were used as cytotoxicity controls (positive control). Each concentration was tested in triplicate in at least two independent experiments.
Cytotoxicity was determined according to the percentages of cell growth (viability) obtained for each tested compound or medium alone. Percentages of viability were calculated first using Equation (1): % Viability = (O.D. of treated cells)/(O.D. of untreated cells) × 100(1) where the O.D. of the untreated cells corresponds to 100% viability. Then, the percentage of cell growth inhibition was calculated using Equation (2): % Cell growth inhibition = 100 − % Viability(2)
The degree of cytotoxicity was established as convenient according to the LC50 values, using our own scale: high cytotoxicity: LC50 < 100 μg/mL, moderate cytotoxicity: 100 μg/mL < LC50 < 200 μg/mL; and potential non-cytotoxicity: LC50 > 200 μg/mL.

Where [3] appears, read: 72 h, L. (V) panamensis axenic amastigotes, MTT, 72 h, mean ± standard deviation, read-out: Axenic Amastigotes EC50.
[4] abbreviates: L. (V) panamensis in U-937 cells, flow cytometry, 72 h, mean ± standard deviation.

For `C[N+](C)(CI)CCO` [Compound 4b, N-Iodomethyl-N,N-dimethyl-N-(2-hydroxyet-1-yl)ammonium iodide], the EC50 is 19.6 ± 1.8 µg/mL in data set [1] (setting [3]) and 23.9 ± 1 µg/mL in data set [2] (setting [4]). This compound also had a CC50 at 72 h in “in vitro” of 17.8 ± 0.2 µg/mL.

Consider `C[N+](C)(C)CCC=C(c1ccccc1)c1ccccc1.[I-]` [Compound 3a, N,N,N-Trimethyl-N-(4,4-diphenylbut-3-en-1-yl)ammonium iodide], for which the figures for the concentration for a half-maximal effect (EC50) in data set [1] (setting [3]) and in data set [2] (setting [4]) were 25 ± 0.7 µg/mL and 30 ± 1.4 µg/mL, respectively. Moreover, the “degree of leishmanicidal activity, axenic amastigotes” value (“degree … axenic amastigotes” for short) in data set [1] was “high (high leishmanicidal activity: EC50 < 25 μg/mL)”. Also, the “degree of leishmanicidal activity, intracellular amastigotes” value (“degree … intracellular amastigotes” below) in data set [2] is reported as “moderate (moderate activity: 25 μg/mL < EC50 < 50 μg/mL)”. This compound gave a CC50 at 72 h in “in vitro” of 39.2 ± 4.8 µg/mL.

For the compound `C[N+](C)(CI)CCC=C(c1ccccc1)c1ccccc1.[I-]` [Compound 2a, N-Iodomethyl-N,N-dimethyl-N-(4,4-diphenylbut-3-en-1-yl)ammonium iodide], the EC50 came to 36.2 ± 0.1 µg/mL in data set [1] (setting [3]) and 27.8 ± 3.9 µg/mL in data set [2] (setting [4]). In the data set “in vitro”, this compound displayed a CC50 at 72 h of 46 ± 5.4 µg/mL.

With `C[N+](C)(CCl)CCCC=C(c1ccccc1)c1ccccc1.[I-]` [Compound 1b, N-Chloromethyl-N,N-dimethyl-N-(5,5-diphenylpent-4-en-1-yl)ammonium iodide], the concentration giving a half-maximal response (EC50) in data set [1] (setting [3]) turned out to be 56.3 ± 3.7 µg/mL; in data set [2] (setting [4]) it was 46.8 ± 1.2 µg/mL. In “in vitro”, this compound returned a CC50 at 72 h of 21 ± 2 µg/mL.

For the compound `C[N+](C)(CCl)CCCCC=C(c1ccccc1)c1ccccc1.[I-]` [Compound 1c, N-Chloromethyl-N,N-dimethyl-N-(6,6-diphenylhex-5-en-1-yl)ammonium iodide], the values for the concentration giving a half-maximal response (EC50) in data set [1] (setting [3]) and in data set [2] (setting [4]) were 40.5 ± 3.3 µg/mL and 49.4 ± 3.1 µg/mL, respectively. In “in vitro”, this compound yielded a CC50 at 72 h of 21 ± 0.5 µg/mL.

Turning to `C[N+](C)(C)CCCC=C(c1ccccc1)c1ccccc1.[I-]` [Compound 3b, N,N,N-Trimethyl-N-(5,5-diphenylpent-4-en-1-yl)ammonium iodide], the concentration for a half-maximal effect (EC50) stood at 25 ± 0.5 µg/mL in data set [1] (setting [3]) and 24.7 ± 1.9 µg/mL in data set [2] (setting [4]). For the same compound, the CC50 at 72 h in the data set “in vitro” came out at 27.2 ± 0.7 µg/mL.

Compound `C[C@@H]1[C@H](O)[C@@H](C)/C=C/C=C/C=C/C=C/C=C/C=C/C=C/[C@H](O[C@@H]2O[C@H](C)[C@@H](O)[C@H](N)[C@@H]2O)C[C@@H]2O[C@](O)(C[C@@H](O)C[C@@H](O)[C@H](O)CC[C@@H](O)C[C@@H](O)CC(=O)O[C@H]1C)C[C@H](O)[C@H]2C(=O)O` [AmB, Amphotericin B, reference compound] returned a CC50 at 72 h in “in vitro” (human) of 28.2 ± 0.5 µg/mL (≈ 30.5 µM).

`C[N+](C)(CI)CCCC=C(c1ccccc1)c1ccccc1.[I-]` [Compound 2b, N-Iodomethyl-N,N-dimethyl-N-(5,5-diphenyl-4-penten-1-yl)ammonium iodide]: the EC50 in data set [1] (setting [3]) came to 19.7 ± 1.5 µg/mL; in data set [2] (setting [4]) it was 24 ± 0.7 µg/mL. Also, the CC50 at 72 h in the data set “in vitro” was determined as 10.1 ± 0.2 µg/mL.

Regarding `C[N+](C)(C)CCO.[I-]` [Compound 4c, (2-Hydroxyethyl)trimethylammonium iodide, reference compound], in data set [1] (72 h, read-out: Axenic Amastigotes EC50, L. (V) panamensis axenic amastigotes, MTT, 72 h, mean ± standard deviation), the concentration for a half-maximal effect (EC50) was < 50 µg/mL. Further, the “Axenic Amastigotes EC50” value in data set [1] (L. (V) panamensis axenic amastigotes, MTT, 72 h, mean ± standard deviation) came out at 47.2 ± 7.1 µg/mL. For the same compound, in data set [1], the “degree … axenic amastigotes” value is given as “moderate activity”. Further, in data set [2], the half-maximal effective concentration (EC50) came to 150 ± 17.9 µg/mL and the “degree … intracellular amastigotes” value is “almost no activity”. In “in vitro”, this compound gave a CC50 at 72 h of 372 ± 43.1 µg/mL.

Regarding `C[N+](C)(CCl)CCO` [Compound 4a, N-Choromethyl-N,N-dimethyl-N-(2-hydroxyet-1-yl)ammonium iodide], the EC50 in data set [1] (setting [3]) stood at 24.3 ± 1.3 µg/mL; in data set [2] (setting [4]), 29.6 ± 2.8 µg/mL. In addition, in data set [1], the “degree … axenic amastigotes” value was “high (high leishmanicidal activity: EC50 < 25 μg/mL)”. In addition, the “degree … intracellular amastigotes” value in data set [2] is recorded as “moderate (moderate activity: 25 μg/mL < EC50 < 50 μg/mL)”. The compound also returned a CC50 at 72 h in “in vitro” of 17.9 ± 0.02 µg/mL.

For the compound `C[N+](C)(CCl)CCC=C(c1ccccc1)c1ccccc1.[I-]` [Compound 1a, N-Chloromethyl-N,N-dimethyl-N-(4,4-diphenylbut-3-en-1-yl)ammonium iodide], the EC50 in data set [1] (setting [3]) was 35 ± 5.7 µg/mL; in data set [2] (setting [4]), 38.4 ± 0.2 µg/mL. Also, the CC50 at 72 h in “in vitro” was 44.4 ± 4.9 µg/mL.

Regarding `C[N+](C)(CI)CCCCC=C(c1ccccc1)c1ccccc1.[I-]` [Compound 2c, N-Iodomethyl-N,N-dimethyl-N-(6,6-diphenylhex-5-en-1-yl)ammonium iodide], the figures for the half-maximal effective concentration (EC50) in data set [1] (setting [3]) and in data set [2] (setting [4]) were 14 ± 0.9 µg/mL and 17.6 ± 1 µg/mL, respectively. In addition, the CC50 at 72 h in “in vitro” is 9.5 ± 0.3 µg/mL.

As for `C[N+](C)(C)CCCCC=C(c1ccccc1)c1ccccc1.[I-]` [Compound 3c, N,N,N-Trimethyl-N-(6,6-diphenylhex-5-en-1-yl)ammonium iodide], the values for the EC50 in data set [1] (setting [3]) and in data set [2] (setting [4]) were 34.1 ± 5.1 µg/mL and 41.6 ± 2.8 µg/mL, respectively. In addition, in “in vitro”, the CC50 at 72 h was determined as 12.5 ± 0.8 µg/mL.
